The text below walks through data of ChEMBL document CHEMBL3044679, “Synthesis and biological evaluation of some stilbene derivatives” (Med Chem Res, 2011).

≈ marks a conversion by molar mass, not a printed value.

Assay type in all cases: functional, cell-based
The test system of one experiment is CCRF-CEM. Briefly: Cytostatic activity against Homo sapiens (human) CEM cells after 72 hr by coulter counter analysis.
In another experiment the test system is L1210. Nature of the experiment: Cytostatic activity against Mus musculus (mouse) L1210 cells after 48 hr by coulter counter analysis. As to conditions: L1210, 48 h.
The test system of another experiment is MOLT-4. Nature of the experiment: Cytostatic activity against Homo sapiens (human) Molt4/C8 cells after 72 hr by coulter counter analysis. As to conditions: MOLT-4, 72 h.

The IC50 is the concentration that gives 50% inhibition. A lower IC50 goes with greater potency. With `O=C(O)/C(=C/c1ccccc1Cl)c1ccccc1`, the IC50 in the experiment with CCRF-CEM is 93 µg/mL (≈ 359 µM); in the experiment on L1210 it was 76 µg/mL (≈ 294 µM); with MOLT-4, 37 µg/mL (≈ 143 µM).
The like results for `O=C(O)/C(=C/c1ccccc1F)c1ccccc1` were, in that order, more than 200 µg/mL, more than 200 µg/mL and 89 µg/mL (≈ 367 µM).
The like results for `CNC(=O)/C(=C/c1ccccc1Cl)c1ccccc1` were, in that order, 60 µg/mL (≈ 221 µM), 65 µg/mL (≈ 239 µM) and 77 µg/mL (≈ 283 µM).
The corresponding values for `CNC(=O)/C(=C/c1ccc(OC)cc1)c1ccccc1` are 128 µg/mL (≈ 479 µM), 68 µg/mL (≈ 254 µM) and 166 µg/mL (≈ 621 µM).
For the compound `CCN(CC)C(=O)/C(=C/c1ccccc1Cl)c1ccccc1`, the half-maximal inhibitory concentration (IC50) came to 18 µg/mL (≈ 57.4 µM) with CCRF-CEM, 24 µg/mL (≈ 76.5 µM) with L1210 and 14 µg/mL (≈ 44.6 µM) with MOLT-4.
The corresponding values for `CCNC(=O)/C(=C/c1ccccc1)c1ccccc1` are 26 µg/mL (≈ 103 µM), 132 µg/mL (≈ 525 µM) and 112 µg/mL (≈ 446 µM).
The like results for `CCNC(=O)/C(=C/c1ccc(OC)cc1)c1ccccc1` were, in that order, 116 µg/mL (≈ 412 µM), 148 µg/mL (≈ 526 µM) and 150 µg/mL (≈ 533 µM).
The like results for `CNC(=O)/C(=C/c1ccccc1F)c1ccccc1` were, in that order, 89 µg/mL (≈ 349 µM), 85 µg/mL (≈ 333 µM) and 72 µg/mL (≈ 282 µM).
Regarding `CNC(=O)/C(=C/c1ccccc1O)c1ccccc1`, the concentration for half-maximal inhibition (IC50) in the experiment with CCRF-CEM, in the experiment on L1210 and in the experiment with MOLT-4 was more than 200 µg/mL throughout.
As to `COC(=O)/C(=C/c1ccccc1Cl)c1ccccc1`, the figures for the IC50 in the experiment with CCRF-CEM, with L1210 and in the experiment on MOLT-4 were 19 µg/mL (≈ 69.7 µM), 25 µg/mL (≈ 91.7 µM) and 16 µg/mL (≈ 58.7 µM), respectively.
The like results for `COC(=O)/C(=C/c1ccc(OC)cc1)c1ccccc1` were, in that order, 71 µg/mL (≈ 265 µM), 66 µg/mL (≈ 246 µM) and 71 µg/mL (≈ 265 µM).
With `Fc1ccc(/N=C/c2ccccc2Cl)cc1Cl`, the IC50 came to 10 µg/mL (≈ 37.3 µM) in the experiment with CCRF-CEM, 6.4 µg/mL (≈ 23.9 µM) in the experiment on L1210 and 3.9 µg/mL (≈ 14.5 µM) with MOLT-4.
In the case of `Fc1ccc(/N=C/c2ccccc2Cl)cc1`, the IC50 was found to be 2.1 µg/mL (≈ 8.99 µM) in the experiment with CCRF-CEM, 6 µg/mL (≈ 25.7 µM) with L1210 and 0.77 µg/mL (≈ 3.3 µM) in the experiment with MOLT-4.
The like results for `Clc1ccccc1/C=N/c1ccc(Br)cc1` were, in that order, 4.5 µg/mL (≈ 15.3 µM), 2.1 µg/mL (≈ 7.13 µM) and 1.5 µg/mL (≈ 5.09 µM).
The corresponding values for `Fc1ccc(/N=C/c2cccs2)cc1Cl` are 25 µg/mL (≈ 104 µM), 3.2 µg/mL (≈ 13.3 µM) and 16 µg/mL (≈ 66.7 µM).
The corresponding values for `COc1ccc(/C=C/c2ccc(F)cc2)cc1` are 156 µg/mL (≈ 683 µM), 26 µg/mL (≈ 114 µM) and more than 200 µg/mL.
Consider `Fc1ccc(/C=C/c2ccccc2F)cc1`, for which the results for the half-inhibitory concentration (IC50) with CCRF-CEM, with L1210 and in the experiment with MOLT-4 were 83 µg/mL (≈ 384 µM), 62 µg/mL (≈ 287 µM) and 61 µg/mL (≈ 282 µM), respectively.
The corresponding values for `Cc1ccc(/C=C/c2ccccc2F)cc1` are 78 µg/mL (≈ 367 µM), 72 µg/mL (≈ 339 µM) and 30 µg/mL (≈ 141 µM).
The like results for `Fc1ccc(/C=C/c2ccccc2)cc1` were, in that order, more than 200 µg/mL, more than 200 µg/mL and more than 200 µg/mL.
The like results for `COc1ccc(/C=C/c2ccc(C)cc2)cc1` were, in that order, more than 200 µg/mL, more than 200 µg/mL and more than 200 µg/mL.
Take `O=C(O)/C(=C/c1ccccc1O)c1ccccc1`: the concentration for half-maximal inhibition (IC50) in the experiment with CCRF-CEM, in the experiment with L1210 and with MOLT-4 was more than 200 µg/mL throughout.
For the compound `Cc1ccc(/C=C/c2ccc(N(C)C)cc2)cc1`, the figures for the IC50 in the experiment with CCRF-CEM, in the experiment with L1210 and in the experiment on MOLT-4 were more than 200 µg/mL, 143 µg/mL (≈ 602 µM) and more than 200 µg/mL, respectively.
Turning to `N[C@@H](Cc1ccc(N(CCCl)CCCl)cc1)C(=O)O` [MELPHALAN], the concentration for half-maximal inhibition (IC50) was 2.5 µg/mL (≈ 8.19 µM) in the experiment on CCRF-CEM, 2.1 µg/mL (≈ 6.88 µM) with L1210 and 3.2 µg/mL (≈ 10.5 µM) in the experiment with MOLT-4.
